This note sets out measurements from US20210000911A1, “COMPOSITIONS AND METHODS FOR PROTECTING EPITHELIAL AND BARRIER INTEGRITY” (OCUNEXUS THERAPEUTICS, INC., priority 2019, published 2021).

Entries after “also recorded” stand apart in the source; their conditions may differ.

In experiment [1] the test system is ARPE-19 cells. The experiment is described as follows: Trans-epithelial electrical resistance (TEER) of ARPE-19 monolayer after HG and cytokine challenge. The note with it: ARPE-19, HG 32.5 mM + TNF-α and IL-1β 10 ng/mL, Peptide5 25 μM. Format: cell-based, Human. As to the method: Cell Culture—Human adult retinal pigment epithelial cells (ARPE-19; American Type Culture Collection, USA) were cultured in Dulbecco's Modified Eagle Medium Nutrient Mixture F-12 (DMEM-F12; Thermofisher Scientific Inc., USA) supplemented with 10% foetal bovine serum (FBS; Invitrogen, USA) and a 1× antibiotics and antimycotics mixture (AA, 100× stock) at 37° C. in a humidified 5% CO2 incubator. Cells were grown in T75 flasks and the medium was changed twice per week until confluent.
HG and/or cytokine challenge—At passage 6-12, cells were plated at 2.5×10^5 cells/mL in 8-well chamber slides for immunohistochemical studies, 6-well plates for TEER and FITC-dextran studies or 96-well plates for the […] dehydrogenase (LDH) and ATP release assay until confluent after which the culture medium was changed to treatments in serum-free DMEM-F12 containing 1×AA for 24 h. […]
Measurement of Trans-Epithelial Electrical Resistance (TEER)—Cells were seeded at 2.5×10^5 cells/mL on polyester membranes in Transwell® 6-well plates (Corning Incorporated, USA) in growth medium and incubated for 72 h. […] Net TEER values were calculated by subtracting the resistance in Transwell inserts without cells from the experimental values obtained from chamber containing cells. […] The sample size was three readings per well, repeated three times in separate experiments.

Experiment [2] deals with ARPE-19 cells. The experiment is described as follows: Lactate dehydrogenase (LDH) release assay. To be noted: ARPE-19, HG + cytokines, 72 h. Format: cell-based, Human. As for the experimental part: (§1) Cell Culture—Human adult retinal pigment epithelial cells (ARPE-19; American Type Culture Collection, USA) were cultured in Dulbecco's Modified Eagle Medium Nutrient Mixture F-12 (DMEM-F12; Thermofisher Scientific Inc., USA) supplemented with 10% foetal bovine serum (FBS; Invitrogen, USA) and a 1× antibiotics and antimycotics mixture (AA, 100× stock) at 37° C. in a humidified 5% CO2 incubator. Cells were grown in T75 flasks and the medium was changed twice per week until confluent. […]
Lactate Dehydrogenase (LDH) assay—Cells were seeded at 2.5×10^5 cells/mL in 96-well plates until confluent after which the culture medium was changed to treatments in serum-free DMEM-F12 containing 1×AA for 72 h. […] The amount of LDH released was assessed using an LDH assay kit as per manufacturer instructions (Sigma-Aldrich, USA). […] A Synergy 2 multi-mode plate reader (BioTek Instruments Inc., USA) was used to measure the absorbance of the formazan dye in the medium at 490 nm (OD490). LDH release (%) was calculated relative to basal conditions.

For experiment [3], the system named is ARPE-19 cells. Briefly: ZO-1 immunohistochemistry (localisation). Format: cell-based, Human. The note with it: ARPE-19, HG + cytokines, Peptide5 25 μM, 72 h. As to the method:
as §1
(§2) Image analysis and quantification of collagen IV immunolabelling—Images were taken on an Olympus FV1000 confocal laser scanning microscope (Olympus, Japan). […] Both ZO-1 and connexin43 expression were qualitatively assessed for changes in localisation. Collagen IV labelling was quantified from four images taken per well and the experiment was repeated three times. […] The total area covered by collagen IV was then quantified using the ‘measure’ feature in ImageJ. Collagen IV results were expressed as a percentage of untreated (basal) cells.

Experiment [4] deals with ARPE-19 cells. The experiment is described as follows: Connexin43 immunohistochemistry (gap junction plaque localisation). Format: cell-based, Human. The note with it: ARPE-19, HG + cytokines, 72 h. As for the experimental part:
as §1, §2

The target of another experiment is connexin43 hemichannel (human, UniProt P17302 2-382). Briefly: cell-based or functional assay.
The mark [5] stands for this setting: Peptide5 25 μM plus exogenous ATP 100 nM.

connexin43 hemichannel, sequence (P17302 2-382): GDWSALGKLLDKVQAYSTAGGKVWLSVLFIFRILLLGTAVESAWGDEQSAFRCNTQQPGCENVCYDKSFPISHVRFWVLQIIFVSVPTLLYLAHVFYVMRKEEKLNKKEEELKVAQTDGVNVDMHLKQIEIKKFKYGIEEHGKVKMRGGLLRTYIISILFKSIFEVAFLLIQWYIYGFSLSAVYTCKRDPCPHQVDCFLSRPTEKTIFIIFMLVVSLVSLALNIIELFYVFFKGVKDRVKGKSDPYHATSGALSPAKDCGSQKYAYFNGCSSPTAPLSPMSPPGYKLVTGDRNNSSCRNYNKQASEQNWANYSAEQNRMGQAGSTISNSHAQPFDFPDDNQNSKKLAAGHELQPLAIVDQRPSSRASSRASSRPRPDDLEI

For the molecule “H-Val-Asp-Cys-Phe-Leu-Ser-Arg-Pro-Thr-Glu-Lys-Thr-OH (H-VDCFLSRPTEKT-OH) [Peptide5]”, the “TEER relative to basal conditions” value is “no statistically significant difference between Peptide5-treated and basal cells; also recorded: prevented a decrease in TEER at both time-points” in the experiment with ARPE-19 cells [1] (48 h); “no statistically significant difference between Peptide5-treated and basal cells; also recorded: prevented a decrease in TEER at both time-points” with ARPE-19 cells [1] (72 h). In the experiment with ARPE-19 cells [2] (setting [5]), the “LDH release with exogenously added ATP” value is listed as “once-again increased LDH release; also recorded: LDH levels were increased to injury levels”. Moreover, the “LDH release relative to basal conditions” value in the experiment with ARPE-19 cells [2] (Peptide5 25 μM) is on record as “LDH release remains low; also recorded: prevented LDH release relative to basal conditions; also recorded: reduced by Peptide5 treatment”. Further, the “ZO-1 localisation at the cell membrane (qualitative)” value in the experiment with ARPE-19 cells [3] was “maintained ZO-1 localisation to cell membranes similar to basal conditions”. Also, in the experiment with ARPE-19 cells [4] (setting [5]), the “Connexin43 localisation with exogenously added ATP (qualitative)” value is listed as “change in connexin43 gap junction localisation; also recorded: again a loss of connexin43 at cell membranes”. Also, the “Connexin43 localisation at the cell membrane (qualitative)” value with ARPE-19 cells [4] (Peptide5 25 μM) was “protected against the redistribution of connexin43 localisation away from the cell membrane and into the cytoplasm; also recorded: connexin43 is kept in its normal pattern; also recorded: maintained connexin43 primarily in gap junction plaques, similar to basal conditions”.

B1: Peptide5 (H-Val-Asp-Cys-Phe-Leu-Ser-Arg-Pro-Thr-Glu-Lys-Thr-OH) (peptide)
peptide: H-VDCFLSRPTEKT-OH
For B1, in the experiment with connexin43 hemichannel, the “FITC-dextran permeability at 72 h (% relative to blank wells), ARPE-19 monolayer with HG and cytokines, Peptide5 at 25 uM” value came out at 33.2%.
